Counter-ions that a name gives are not always drawn.
How the values were obtained:
[1] = molecular target: PRMT5/MEP50 protein complex (Homo sapiens (Human), UniProt O14744); assay: PRMT5 biochemical assay (3H-SAM methylation of H4(1-21) peptide, filter plate scintillation); details: 10 nM PRMT5/MEP50 complex, 200 nM H4(1-21) peptide, 1 uM SAM, 25 minute incubation at room temperature
Method in brief: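 Scintillation read-out: after 25 min at room temperature and a TCA stop, tritiated H4(1-21) product (peptide 200 nM) is caught on a filter plate. Reaction holds 10 nM PRMT5/MEP50 and 1 uM 3H-labelled plus cold SAM in 50 mM Tris pH 8.5 with MgCl2, EDTA and TCEP. IC50 values come from a 4-parameter dose-response fit.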

[2] = test system: A549 lung adenocarcinoma cells; assay: A549 proliferation assay (Cell Titer Glo); format: cell-based; details: 7 days with compound, cell viability by Cell Titer Glo (ATP)
Description: A549 lung adenocarcinoma cells (American Type Culture Collection) were maintained in DMEM growth media (Life Technologies) supplemented with 10% v/v heat inactivated fetal bovine serum (Sigma) and cultured at 37° C., 5% CO2. Exponentially growing A549 cells were plated in 96-well black tissue culture treated plates (Corning) at a density of […] in a volume of 100 μl culture media and allowed to adhere overnight at 37° C., 5% CO2. The following day, compound plates were prepared by making nine-point 3.3-fold dilutions in DMSO with a top concentration of 10 mM. Compounds were further diluted in culture media and 11 μl was added to the cells (final top assay concentration was 10 μM and DMSO was 0.2%). Cells were incubated with compound at 37° C., 5% CO2 for 7 days with media and compound replacement on day 4. Cell viability was assayed on Day 7 by adding 100 μl Cell Titer Glo (Promega) reagent to the plate to measure the amount of ATP present in the cells. Luminescence was read using the Envision 2104 Multilabel Reader (Perkin Elmer). The 50% inhibitory concentration (IC50) was determined using a 4-parameter fit model normalized to the DMSO control in dose response.

PRMT5/MEP50 protein complex, sequence (O14744 other isoform, or with tags, fused parts or gaps): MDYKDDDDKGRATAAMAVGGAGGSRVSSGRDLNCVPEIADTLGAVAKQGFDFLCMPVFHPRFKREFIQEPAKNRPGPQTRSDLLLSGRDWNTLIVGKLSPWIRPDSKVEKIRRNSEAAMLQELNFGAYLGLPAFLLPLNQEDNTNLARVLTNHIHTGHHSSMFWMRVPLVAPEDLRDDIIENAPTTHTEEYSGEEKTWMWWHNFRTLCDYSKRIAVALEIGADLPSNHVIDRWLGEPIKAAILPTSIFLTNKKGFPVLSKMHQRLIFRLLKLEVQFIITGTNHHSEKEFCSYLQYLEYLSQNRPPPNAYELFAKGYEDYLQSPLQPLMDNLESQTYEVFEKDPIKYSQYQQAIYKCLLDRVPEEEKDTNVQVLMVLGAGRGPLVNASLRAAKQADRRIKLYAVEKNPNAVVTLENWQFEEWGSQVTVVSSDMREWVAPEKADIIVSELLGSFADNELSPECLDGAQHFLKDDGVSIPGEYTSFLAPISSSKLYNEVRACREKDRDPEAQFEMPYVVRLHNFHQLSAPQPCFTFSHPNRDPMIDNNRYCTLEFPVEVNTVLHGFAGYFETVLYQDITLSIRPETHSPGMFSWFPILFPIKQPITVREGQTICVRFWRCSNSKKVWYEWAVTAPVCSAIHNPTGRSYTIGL
PRMT5/MEP50 protein complex, sequence (Q9BQA1 whole entry partner): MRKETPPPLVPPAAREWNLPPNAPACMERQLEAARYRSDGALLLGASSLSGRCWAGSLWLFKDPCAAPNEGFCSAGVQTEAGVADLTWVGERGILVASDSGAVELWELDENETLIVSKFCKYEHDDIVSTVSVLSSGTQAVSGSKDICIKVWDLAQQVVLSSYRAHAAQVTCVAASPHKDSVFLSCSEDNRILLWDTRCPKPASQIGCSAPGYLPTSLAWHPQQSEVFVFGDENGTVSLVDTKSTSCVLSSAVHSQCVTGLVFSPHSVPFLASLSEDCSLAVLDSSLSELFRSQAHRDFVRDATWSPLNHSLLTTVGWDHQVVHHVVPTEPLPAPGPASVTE

Compound	IC50 [1] [nM]	IC50 ([2]; Homo sapiens, A549, 168 h) [nM]	IC50 ([2]; hydrochloride) [nM]	IC50 [2] [nM]	IC50 ([2]; Homo sapiens, 168 h) [nM]
Cc1ncnc2c1ccn2[C@@H]1C[C@H](Oc2ccc(F)c3c2CNCC3C)[C@@H](O)[C@H]1O (single isomer, unassigned) [Example 182, hydrochloride]	2	–	2180	–	–
Cc1ncnc2c1ccn2[C@@H]1C[C@H](Oc2ccc(F)c3c2CNCC3C)[C@@H](O)[C@H]1O (single isomer, unassigned) [Example 183, hydrochloride]	1	–	136	–	–
Cc1ncnc2c1ccn2[C@@H]1C[C@H](Oc2cccc3c2C(N)CCC3)[C@@H](O)[C@H]1O (single isomer, unassigned) [Example 186]	12	9530	–	–	–
Cc1ncnc2c1ccn2[C@@H]1C[C@H](Oc2cccc3c2CC(N)CO3)[C@@H](O)[C@H]1O (single isomer, unassigned) [Example 188]	4	6470	–	–	–
Cc1ncnc2c1ccn2[C@@H]1C[C@H](Oc2ccc(F)c3c2C(C)NCC3)[C@@H](O)[C@H]1O (single isomer, unassigned) [Example 214]	8	–	–	1080	–
Cc1ncnc2c1ccn2[C@@H]1C[C@H]([C@H](O)c2ccc(F)c(F)c2)[C@@H](O)[C@H]1O [Example 3, (1S,2R,3R,5R)-3-[(S)-(3,4-difluorophenyl) (hydroxy)methyl]-5-(4-methyl-7H-pyrrolo[2,3-d]pyrimidin-7-yl)cyclopentane-1,2-diol]	32	–	–	–	1100
Cc1ncnc2c1ccn2[C@@H]1C[C@H]([C@H](O)c2ccc(F)c(Cl)c2)[C@@H](O)[C@H]1O [Example 5, (1S,2R,3R,5R)-3-[(S)-(3-chloro-4-fluorophenyl) (hydroxy)methyl]-5-(4-methyl-7H-pyrrolo[2,3-d]pyrimidin-7-yl)cyclopentane-1,2-diol]	25	–	–	–	932
Cc1ncnc2c1ccn2[C@@H]1C[C@H]([C@H](O)c2ccc(Cl)cc2)[C@@H](O)[C@H]1O [Example 11, (1S,2R,3R,5R)-3-[(S)-(4-chlorophenyl)(hydroxy)methyl]-5-(4-methyl-7H-pyrrolo[2,3-d]pyrimidin-7-yl)cyclopentane-1,2-diol]	20	–	–	–	1390
Cc1ncnc2c1ccn2[C@@H]1C[C@H]([C@H](O)c2cc(F)c(F)c(F)c2)[C@@H](O)[C@H]1O [Example 13, (1S,2R,3R,5R)-3-[(S)-hydroxy(3,4,5-trifluorophenyl)methyl]-5-(4-methyl-7H-pyrrolo[2,3-d]pyrimidin-7-yl)cyclopentane-1,2-diol]	16	–	–	–	971
Cc1ncnc2c1ccn2[C@@H]1C[C@H](Cc2ccc(Cl)cc2CN)[C@@H](O)[C@H]1O [Example 55, (1S,2R,3S,5R)-3-(2-(aminomethyl)-4-chlorobenzyl)-5-(4-methyl-7H-pyrrolo[2,3-d]pyrimidin-7-yl)cyclopentane-1,2-diol]	2	3170	–	–	–
Cc1ncnc2c1ccn2[C@@H]1C[C@H](Oc2ccc(F)cc2CN)[C@@H](O)[C@H]1O [Example 66, (1S,2S,3S,5R)-3-(2-(aminomethyl)-4-fluorophenoxy)-5-(4-methyl-7H-pyrrolo[2,3-d]pyrimidin-7-yl)cyclopentane-1,2-diol]	4	6810	–	–	–
Cc1cc2c(c(O[C@H]3C[C@@H](n4ccc5c(C)ncnc54)[C@H](O)[C@@H]3O)c1)CNCCO2 [Example 206, (1S,2S,3S,5R)-3-((8-methyl-2,3,4,5-tetrahydrobenzo[f][1,4]oxazepin-6-yl)oxy)-5-(4-methyl-7H-pyrrolo[2,3-d]pyrimidin-7-yl)cyclopentane-1,2-diol]	–	6550	–	–	–

More lines, in order of falling IC50 ([2]; Homo sapiens, A549, 168 h), values ahead:

IC50 [1] [nM]	IC50 ([2]; Homo sapiens, A549, 168 h) [nM]	IC50 ([2]; hydrochloride) [nM]	IC50 [2] [nM]	Compound	IC50 ([2]; Homo sapiens, 168 h) [nM]
56	1670	–	–	Nc1ncnc2c1c(F)cn2[C@@H]1C[C@H]([C@H](O)c2ccc(F)cc2)[C@@H](O)[C@H]1O [Example 25, (1R,2S,3R,5R)-3-(4-amino-5-fluoro-7H-pyrrolo[2,3-d]pyrimidin-7-yl)-5-[(S)-(4-fluorophenyl)(hydroxy)methyl]cyclopentane-1,2-diol]	–
1	1400	–	–	Cc1ncnc2c1ccn2[C@@H]1C[C@H](Oc2cccc3c2CNC(C)C3)[C@@H](O)[C@H]1O (single isomer, unassigned) [Example 184]	–
1	1200	–	–	Cc1ncnc2c1ccn2[C@@H]1C[C@H](Oc2ccc(F)c3c2C(C)NCC3)[C@@H](O)[C@H]1O (single isomer, unassigned) [Example 213]	–
65	1120	–	–	Cc1ncnc2c1ccn2C1C[C@H](Oc2cccc3ccncc23)[C@@H](O)[C@H]1O (stereo partly drawn) [Example 77, (1S,2S,3S,5R)-3-(isoquinolin-8-yloxy)-5-(4-methyl-7H-pyrrolo[2,3-d]pyrimidin-7-yl)cyclopentane-1,2-diol]	–
64	1070	–	–	Cc1ncnc2c1ccn2[C@@H]1C[C@H]([C@](C)(O)c2ccc(F)cc2)[C@@H](O)[C@H]1O [Example 19, (1S,2R,3S,5R)-3-[(1 S)-1-(4-fluorophenyl)-1-hydroxyethyl]-5-(4-methyl-7H-pyrrolo[2,3-d]pyrimidin-7-yl)cyclopentane-1,2-diol]	–
–	482	–	–	Nc1ncnc2c1c(Br)cn2[C@@H]1C[C@H](Oc2cc(Cl)cc3c2CNCC3)[C@@H](O)[C@H]1O [Example 131]	–
2	378	–	–	Cc1ncnc2c1ccn2[C@@H]1C[C@H]([C@H](O)c2cccc3c2CNCC3)[C@@H](O)[C@H]1O [Example 56, (1S,2R,3R,5R)-3-((S)-hydroxy(1,2,3,4-tetrahydroisoquinolin-8-yl)methyl)-5-(4-methyl-7H-pyrrolo[2,3-d]pyrimidin-7-yl)cyclopentane-1,2-diol]	–
–	248	–	–	Cc1ncnc2c1ccn2[C@@H]1C[C@H](Oc2cc(C(F)F)cc3c2CNCCO3)[C@@H](O)[C@H]1O [Example 205, (1S,2S,3S,5R)-3-((8-(difluoromethyl)-2,3,4,5-tetrahydrobenzo[f][1,4]oxazepin-6-yl)oxy)-5-(4-methyl-7H-pyrrolo[2,3-d]pyrimidin-7-yl)cyclopentane-1,2-diol]	–
6	227	–	–	Cc1ncnc2c1ccn2[C@@H]1C[C@H]([C@H](O)c2ccc(Cl)cc2CN)[C@@H](O)[C@H]1O [Example 53, (1S,2R,3R,5R)-3-((S)-(2-(aminomethyl)-4-chlorophenyl)(hydroxy)methyl)-5-(4-methyl-7H-pyrrolo[2,3-d]pyrimidin-7-yl)cyclopentane-1,2-diol]	–
5	192	–	–	Cc1nc(N)nc2c1ccn2[C@@H]1C[C@H]([C@H](O)c2ccc(F)c(F)c2)[C@@H](O)[C@H]1O [Example 48, (1R,2S,3R,5R)-3-(2-amino-4-methyl-7H-pyrrolo[2,3-d]pyrimidin-7-yl)-5-[(S)-(3,4-difluorophenyl)(hydroxy)methyl]cyclopentane-1,2-diol]	–
–	140	–	–	Cc1ncnc2c1ccn2[C@@H]1C[C@H](Oc2cc(OC(F)F)c(F)c3c2CNCC3)[C@@H](O)[C@H]1O [Example 200, (1S,2S,3S,5R)-3-((6-(difluoromethoxy)-5-fluoro-1,2,3,4-tetrahydroisoquinolin-8-yl)oxy)-5-(4-methyl-7H-pyrrolo[2,3-d]pyrimidin-7-yl)cyclopentane-1,2-diol]	–
3	135	–	–	Cc1ncnc2c1ccn2[C@@H]1C[C@H](C(F)c2ccc(F)cc2)[C@@H](O)[C@H]1O (single isomer, unassigned) [Example 22]	–
